Reference: ChEMBL document CHEMBL4665787, “Bifunctional and Unusual Amino Acid β- or γ-Ester Prodrugs of Nucleoside Analogues for Improved Affinity to ATB and Enhanced Metabolic Stability: An Application to Floxuridine” (J Med Chem, 2020)
Calls of active or inactive are those of the source. The calls are words filed in the database; no cut-off is given here.

How the values were obtained:
[1] = target: T1, Solute carrier family 15 member 1 (Homo sapiens, UniProt P46059); assay: Substrate activity at PEPT1 (unknown origin) expressed in MDCK cells assessed as PEPT1 mediated drug uptake at 0.5 mM incubated for 10 mins by HPLC analysis; format: ADME, cell-based; settings: 500 µM
T1 sequence (P46059 whole entry): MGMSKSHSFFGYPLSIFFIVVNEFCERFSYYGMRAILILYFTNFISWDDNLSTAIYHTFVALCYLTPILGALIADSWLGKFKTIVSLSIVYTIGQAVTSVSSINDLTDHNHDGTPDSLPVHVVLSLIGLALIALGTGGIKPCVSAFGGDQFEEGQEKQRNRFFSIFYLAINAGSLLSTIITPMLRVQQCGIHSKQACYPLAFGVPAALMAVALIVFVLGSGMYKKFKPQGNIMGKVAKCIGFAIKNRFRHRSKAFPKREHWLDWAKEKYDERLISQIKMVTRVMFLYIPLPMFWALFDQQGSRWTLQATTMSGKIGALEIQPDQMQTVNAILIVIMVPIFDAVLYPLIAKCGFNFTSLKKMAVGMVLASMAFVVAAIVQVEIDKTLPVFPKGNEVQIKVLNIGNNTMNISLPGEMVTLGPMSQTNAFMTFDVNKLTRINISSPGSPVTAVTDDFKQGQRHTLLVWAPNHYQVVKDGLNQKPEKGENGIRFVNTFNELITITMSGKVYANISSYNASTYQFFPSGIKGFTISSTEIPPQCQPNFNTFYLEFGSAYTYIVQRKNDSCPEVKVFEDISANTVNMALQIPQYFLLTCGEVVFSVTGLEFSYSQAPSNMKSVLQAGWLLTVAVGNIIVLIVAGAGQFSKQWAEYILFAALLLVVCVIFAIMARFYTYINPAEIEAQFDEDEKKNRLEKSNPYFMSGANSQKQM

MDA-MB-231 = assay: Potency index, ratio of FUdR GI50 to test compound GI50 for growth inhibition of human MDA-MB-231 cells; format: functional
thymidine phosphorylase = assay: Half life of compound in thymidine phosphorylase buffer at 300 uM by HPLC analysis; format: physicochemical
MIA PaCa-2 = assay: Potency index, ratio of FUdR GI50 to test compound GI50 for growth inhibition of human MIA-PaCa-2 cells; format: functional
[2] = Half life in rat plasma at 200 uM measured up to 120 mins by HPLC-MS/MS analysis; format: ADME, cell-free
[3] = Half life of compound in human ZR-75-1 cell homogenate; format: ADME, tissue-based
[4] = Drug uptake in Xenopus laevis oocytes at 0.5 mM incubated for 10 mins by HPLC analysis; format: ADME, cell-based; settings: oocyte, 500 µM
[5] = Half life of compound in human MIA PaCa-2 cell homogenate; format: ADME, tissue-based
[6] = Half life of compound in PBS buffer at pH 7.4 at 200 uM by HPLC analysis; format: physicochemical
[7] = Half life of compound in human MDA-MB-231 cell homogenate; format: ADME, tissue-based
[8] = Selectivity ratio of substrate activity at PEPT1 (unknown origin) expressed in MDCK cells assessed as PEPT1 mediated drug uptake to drug uptake in MDCK cells
[9] = target: T2, Sodium- and chloride-dependent neutral and basic amino acid transporter B(0+) (Homo sapiens, UniProt Q9UN76); assay: Substrate activity at SLC6A14 (unknown origin) expressed in Xenopus laevis oocytes assessed as ABT0+ mediated drug uptake at 0.5 mM incubated for 10 mins by HPLC analysis; format: ADME, cell-based; settings: oocyte, 500 µM
T2 sequence (Q9UN76 whole entry): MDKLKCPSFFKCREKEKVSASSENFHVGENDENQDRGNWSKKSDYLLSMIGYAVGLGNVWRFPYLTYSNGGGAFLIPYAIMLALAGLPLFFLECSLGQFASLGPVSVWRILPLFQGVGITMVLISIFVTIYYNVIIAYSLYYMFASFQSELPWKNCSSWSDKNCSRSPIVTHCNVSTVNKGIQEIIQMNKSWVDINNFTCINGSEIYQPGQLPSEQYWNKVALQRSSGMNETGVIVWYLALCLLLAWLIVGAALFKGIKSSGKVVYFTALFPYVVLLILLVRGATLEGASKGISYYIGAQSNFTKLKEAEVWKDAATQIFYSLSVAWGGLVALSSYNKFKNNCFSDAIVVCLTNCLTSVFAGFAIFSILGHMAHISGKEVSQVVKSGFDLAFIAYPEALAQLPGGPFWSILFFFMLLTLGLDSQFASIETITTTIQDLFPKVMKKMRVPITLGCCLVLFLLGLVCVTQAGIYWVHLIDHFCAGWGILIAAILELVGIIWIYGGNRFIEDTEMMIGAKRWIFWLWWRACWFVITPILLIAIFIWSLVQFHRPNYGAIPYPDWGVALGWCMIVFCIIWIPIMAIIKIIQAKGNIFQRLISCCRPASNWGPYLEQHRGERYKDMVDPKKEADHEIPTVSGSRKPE

[10] = Selectivity ratio of substrate activity at SLC6A14 (unknown origin) expressed in Xenopus laevis oocytes assessed as ABT0+ mediated drug uptake to drug uptake in Xenopus laevis oocytes; parameters: species or system Oocyte
[11] = target: T1, Solute carrier family 15 member 1; assay: Substrate activity at PEPT1 (unknown origin) expressed in MDCK cells assessed as inhibition of gly-sar uptake incubated for 10 mins by HPLC/MS/MS analysis; format: cell-based
[12] = Drug uptake in MDCK cells incubated for 10 mins by HPLC analysis; format: ADME, cell-based, Canis lupus familiaris; settings: dog, 500 µM, dose 0.5 mM
ZR-75-1 = assay: Potency index, ratio of FUdR GI50 to test compound GI50 for growth inhibition of human ZR-75-1 cells; format: functional
[13] = target: T2, Sodium- and chloride-dependent neutral and basic amino acid transporter B(0+); assay: Substrate activity at SLC6A14 (unknown origin) expressed in Xenopus laevis oocytes assessed as inhibition of glycine uptake incubated for 10 mins by HPLC/MS/MS analysis; format: cell-based, Oocyte
[14] = target: T3, Sodium- and chloride-dependent neutral and basic amino acid transporter B(0+) (Homo sapiens) (UniProt Q9UN76); assay: Substrate activity at SLC6A14 (unknown origin) expressed in Xenopus laevis oocytes assessed as increase in ABT0+ mediated drug uptake at 1 mM in presence of Cl- ion by HPLC analysis; format: cell-based; settings: Oocyte
T3 sequence (whole entry): T2 sequence (Q9UN76 whole entry)

[15] = target: T3, Sodium- and chloride-dependent neutral and basic amino acid transporter B(0+) (Homo sapiens); assay: Substrate activity at SLC6A14 (unknown origin) expressed in Xenopus laevis oocytes assessed as inhibition of drug uptake at 0.5 mM incubated for 10 mins in presence of glycine by HPLC analysis relative to control; format: cell-based; settings: Oocyte
[16] = target: T3, Sodium- and chloride-dependent neutral and basic amino acid transporter B(0+) (Homo sapiens); assay: Substrate activity at SLC6A14 (unknown origin) expressed in Xenopus laevis oocytes assessed as increase in ABT0+ mediated drug uptake at 1 mM in presence of Na+ ion by HPLC analysis; format: cell-based; settings: Oocyte

Row | Compound | Drug uptake [1] [nmol/mg/min] | RatioGI50 (MDA-MB-231) | half-life at 300 µM (thymidine phosphorylase) [min] | RatioGI50 (MIA PaCa-2) | half-life at 200 µM [2] [min] | half-life [3] [min] | Drug uptake [4] [nmol/mg/min] | half-life [5] [min] | half-life at 200 µM [6] [min] | half-life [7] [min] | Ratio [8] | Drug uptake [9] [nmol/mg/min] | Ratio [10] | IC50 [11] [µM] | Drug uptake [12] [nmol/mg/min] | RatioGI50 (ZR-75-1) | IC50 [13] [µM] | Activity [14] | inhibition [15] [%] | Activity [16]
1 | N[C@@H](CC(=O)O[C@H]1C[C@H](n2cc(F)c(=O)[nH]c2=O)O[C@@H]1CO)C(=O)O | < 0.04 | 7 | 278 | 7 | 124 | 24.2 | 0.36 | 32.1 | 179 | 19.3 | 1 | 1.89 | 5.25 | 13900 | < 0.04 | 7 | 1570 | – | – | –
2 | CC(C)[C@H](N)C(=O)OC[C@H]1O[C@@H](n2cc(F)c(=O)[nH]c2=O)C[C@@H]1O | 1.78 | 7 | 408 | 7 | 78.5 | 16.4 | 0.31 | 11.3 | 203 | 15.3 | 4.34 | 2.34 | 7.55 | 1120 | 0.41 | 7 | 980 | Active | 50 | Active
3 | N[C@@H](CC(=O)OC[C@H]1O[C@@H](n2cc(F)c(=O)[nH]c2=O)C[C@@H]1OC(=O)C[C@H](N)C(=O)O)C(=O)O | < 0.04 | 7 | 301 | 7 | 56.1 | 16.2 | 0.34 | 11.3 | 98.2 | 9.3 | 1 | 1.12 | 3.29 | – | < 0.04 | 7 | 2980 | – | – | –
4 | CC(C)[C@H](N)C(=O)O[C@H]1C[C@H](n2cc(F)c(=O)[nH]c2=O)O[C@@H]1CO | 1.23 | 7 | 368 | 7 | 65.3 | 9.2 | 0.39 | 12.2 | 187 | 14.9 | 2.86 | 1.56 | 4 | 1890 | 0.43 | 7 | 1630 | – | – | –
5 | N[C@@H](CCC(=O)OC[C@H]1O[C@@H](n2cc(F)c(=O)[nH]c2=O)C[C@@H]1OC(=O)CC[C@H](N)C(=O)O)C(=O)O | < 0.04 | 7 | 235 | 7 | 67.9 | 14.3 | 0.32 | 17.5 | 109 | 21.1 | 1 | 0.78 | 2.44 | – | < 0.04 | 7 | 2650 | – | – | –
6 | CC(C)[C@H](N)C(=O)OC[C@H]1O[C@@H](n2cc(F)c(=O)[nH]c2=O)C[C@@H]1OC(=O)[C@@H](N)C(C)C | 1.11 | 7 | 257 | 7 | 37.8 | 6.7 | 0.37 | 8.4 | 106 | 10.1 | 2.63 | 1.03 | 2.78 | 2240 | 0.44 | 7 | 2010 | – | – | –
7 | N[C@@H](CCC(=O)O[C@H]1C[C@H](n2cc(F)c(=O)[nH]c2=O)O[C@@H]1CO)C(=O)O | < 0.04 | 7 | 289 | 7 | 97.4 | 7.9 | 0.28 | 10.2 | 183 | 8.3 | 1 | 1.04 | 3.71 | 13000 | < 0.04 | 7 | 1840 | – | – | –
